According to patent publication US4395413A, “Oxime ethers and pharmaceutical compositions containing the same” (Egyt Gyogyszervegyeszeti Gyar, priority 1979, dated 1983):
Where two headings read alike, the source gives them in different places.

Experiments:
[1] = analgesic effect on mice (method of Koster); type: in vivo; conditions: for ED50: Mus musculus, po; for Therapeutic index: p.o.
Procedure:  The analgesic effect was determined on mice by the method of Koster, R.
Anderson, M., De Beer, E. J., Fred.

[2] = acute toxicity on white mice (strain CFLP); conditions: mouse, in vivo, 4 days observation
Procedure: The acut toxicity of the new compounds according to the invention was determined on white mice of both sexes weighing 18-24 g belonging to the strain CFLP. Administration was effected with an oral or intraperitoneal dosage of 20 ml/kg. After treatment the animals were kept under observation for 4 days.

nicotine-lethality = assay: inhibition of nicotine-lethality on mice (method of Stone); type: in vivo; conditions: for ED50: Mus musculus, po, read-out: ED50 /p.o./; for Therapeutic index: nicotine-lethality inhibition
Procedure: The inhibition of nicotine-lethality was determined on mice by the method of Stone /Stone, C. A. et al.: Arch. Intern.

ischiadic nerve of rats = assay: local anaesthetic effect on the ischiadic nerve of rats (method of Truant and d'Amato); type: in vivo; conditions: for Duration 0.25% / EC50: rats, ischiadic nerve; for Duration 0.25%: 0.25% concentration; for EC50: local anaesthesia; for Relative efficiency: referred to Lidocaine
Source text: The local anaesthetic effect was investigated on the ischiadic nerve of rats by means of the method of Truant and d'Amato /Truant, A. P. and Wiedling, S.: Acta Chirurg. Scand. 116, 351 /1958//. Lidocaine served as reference substance.
In Table III. below, the relative efficiency referred to Lidocaine and the duration of the effect on application of 0.25% concentrations of Lidocaine are given.

[3] = blood pressure of waking rats of normal tension, oral; type: in vivo; conditions: orally, 100 mg/kg
Procedure: (§1) The hypotensive effect of the new compounds was tested on anaesthesized cats. The compound of Example 7, administered in doses of 3 and 5 mg/kg, results in a prolonged decrease of blood pressure of 40 Hgmm. […] This compound, orally tested on waking rats of normal tension in a dosage of 100 mg/kg, results in a decrease of blood pressure of 13 Hgmm.

orthostatic hypotension = assay: influence on the orthostatic hypotension; type: in vivo; conditions: qualitative
[4] = hypotensive effect on anaesthesized cats; type: in vivo; conditions: doses of 3 and 5 mg/kg
Procedure: as §1

carotid occlusion reflex = assay: effect on the carotid occlusion reflex; type: in vivo, cats; conditions: qualitative
Procedure: as §1

noradrenaline = noradrenaline antagonistic (alpha-receptor blocking) effect; type: in vivo, cats
isoproterenol = isoproterenol antagonistic (beta-receptor blocking) effect; type: in vivo, cats
[5] = po, per os, read-out: LD50 per os.

Row | SMILES | ED50 [1] | Therapeutic index [1] | LD50 at 96 h ([2]; ip, read-out: LD50 i.p.) | LD50 at 96 h [2, 5] | ED50 (nicotine-lethality; mice, p.o., nicotine-lethality) | Therapeutic index (nicotine-lethality; mice, p.o.) | other results
1 | CCCC=C1CCCCC1=NOCCCN1CCN(Cc2ccccc2)CC1 [Example 8, 2-butylidene-[3'-/4"-benzylpiperazinyl/-propoxyimino]-cyclohexane] | 290 mg/kg | 5 | 230 mg/kg | 1450 mg/kg |  |  | 
2 | CCCCCC=C1CCCCC1=NOCCCN1CCN(C)CC1 [Example 15, 2-hexylidene-1-[3'-/4"-methylpiperazinyl/propoxyimino]-cyclohexane] |  |  | 200 mg/kg | 3000 mg/kg | 190 mg/kg | 16.0 | 
3 | CCN(CC)CC(=O)Nc1c(C)cccc1C [Lidocaine, reference compound] |  |  |  |  |  |  | Duration 0.25% (ischiadic nerve of rats): 24 min; EC50 (ischiadic nerve of rats): 0.19 % conc.; Relative efficiency (ischiadic nerve of rats): 1.00
4 | CCCCC1CCCCC1=NOCCCN(C)C (stereo not shown) [Example 3, 2-n-butyl-1-/3'-dimethylaminopropoxyimino/-cyclohexane] | 45 mg/kg | 9 | 100 mg/kg | 430 mg/kg |  |  | 
5 | CCCCC1CCCCC1=NOCCCN1CCN(Cc2ccccc2)CC1 (stereo not shown) [Example 5, 2-n-butyl-1-[3'-/4"-benzylpiperazinyl/-propoxyimino]-cyclohexane] | 250 mg/kg | 5.2 | 240 mg/kg | 1300 mg/kg |  |  | 
6 | CCCCC=C1CCCCC1=NOCCCN1CCN(C)CC1 [Example 9, 2-pentylidene-1-[3'-/4"-methylpiperazinyl/-propoxyimino]-cyclohexane] | 500 mg/kg | 6 | 200 mg/kg | 3000 mg/kg | 150 mg/kg | 20.0 | Duration 0.25% (ischiadic nerve of rats): 64 min; EC50 (ischiadic nerve of rats): 0.25 % conc.; Relative efficiency (ischiadic nerve of rats): 0.76
7 | CCCCC1CCCCC1=NOCC(C)CN(C)C (stereo not shown) [Example 4, 2-n-butyl-1-/2'-methyl-3'-dimethylaminopropoxyimino/-cyclohexane] |  |  | 110 mg/kg | 400 mg/kg |  |  | Duration 0.25% (ischiadic nerve of rats): 31 min; EC50 (ischiadic nerve of rats): 0.15 % conc.; Relative efficiency (ischiadic nerve of rats): 1.13
8 | CCCCCCCC=C1CCCCC1=NOCCCN1CCN(C)CC1 [Example 16, 2-octylidene-1-[3'-/4"-methylpiperazinyl/propoxyimino]-cyclohexane] | 200 mg/kg | 15.0 | 270 mg/kg | 3000 mg/kg |  | 17.6 | ED50 (nicotine-lethality): 150 mg/kg
9 | OC(CCN1CCCCC1)(c1ccccc1)C1CCCCC1 (stereo not shown) [Trihexyphenidyl, reference compound] |  |  |  |  | 40 mg/kg | 9.13 | 
10 | CCCCC=C1CCCCC1=NOCCCN1CCN(Cc2ccccc2)CC1 [Example 10, 2-pentylidene-1-[3'-/4"-benzylpiperazinyl/-propoxyimino]-cyclohexane] | 140 mg/kg | 13.0 | 160 mg/kg | 1800 mg/kg |  |  | 
11 | CCCCC1CCCCC1=NOCCN(C)C (stereo not shown) [Example 1, 2-n-butyl-1-/2'-dimethylaminoethoxyimino/-cyclohexane] | 320 mg/kg |  | 135 mg/kg | 580 mg/kg |  |  | 
12 | C=CCC1CCCCC1=NOCCCN1CCN(C)CC1 (stereo not shown) [Example 14, 2-allyl-[3'-/4"-methylpiperazinyl/-propoxyimino]-cyclohexane] |  |  | 310 mg/kg | 1600 mg/kg | 70 mg/kg | 22.0 | 
13 | CCCC=C1CCCCC1=NOCCCN1CCN(C)CC1 [Example 7, 2-butylidene-1-[3'-/4"-methylpiperazinyl/-propoxyimino]-cyclohexane] |  |  | 330 mg/kg | 1600 mg/kg | 155 mg/kg | 10.0 | decrease of blood pressure [3]: 13 Hgmm; influence on the orthostatic hypotension (orthostatic hypotension): no influence on the orthostatic hypotension; prolonged decrease of blood pressure [4]: 40 Hgmm; effect on the carotid occlusion reflex (carotid occlusion reflex): decreases the effect on the carotid occlusion reflex; ED50 (noradrenaline; Felis catus, iv, read-out: noradrenaline antagonistic i.v. ED50): 2.3 mg/kg; alpha-receptor blocking effect (noradrenaline; qualitative): alpha- and beta-receptor blocking effect; ED50 (isoproterenol; Felis catus, iv, read-out: isoproterenol antagonistic i.v. ED50): 2.5 mg/kg; beta-receptor blocking effect (isoproterenol; qualitative): alpha- and beta-receptor blocking effect
